Earlier results in paper PMC9475419 (RSC Advances, 2022).
“Also recorded” adds a separate entry of the source.

Key:
[1] = 15 Pep1 per AuNP (3.6 nm); cited from earlier work
[2] = cited from earlier work

## CGSTIYASYYESGHGC [Pep1]
[1]
  suppression of non-specific binding of AuNPs by Pep1: enough to suppress the non-specific binding surface of AuNPs; also recorded: could sufficiently suppress the non-specific binding of AuNPs
[2]
  structure and function of free peptide: unstructured and non-functional
